Literature values in PMC4469068 (Endocrine-related cancer, 2012).
*1 amine or outer side, *2 acyl side, *3 side chain or, on linkers, in order; H or OH if unused. Where a SMILES comes first, the peptide text is derived from it. Side-chain parts run from the residue outwards. [ ]: non-standard residue; d: D form. The star is where a group is joined. Ethylenediamine = C(CN[*:2])N[*:1]; Hyp = O=C(O)[C@@H]1C[C@@H](O)CN1; Phg = N[C@H](C(=O)O)c1ccccc1; CO = O=C([*:1])[*:2]; Bn = c1ccc(C*)cc1

Columns and labels:
[1] = system: pancreatic neuroendocrine tumors; details: ref Yao et al. 2011
[2] = system: patients with octreotide-refractory carcinoid syndrome; details: pasireotide 300–1200 mcg bid; ref Kvols et al. 2006
[3] = system: cell lines derived from small intestine or pancreatic neuroendocrine tumors; details: in vitro; ref Kidd, et al. 2008
QTc interval = details: 1950 mcg twice daily, healthy adults; ref Novartis, 2012
patients with acromegaly = details: pasireotide 200–600 mcg BID; ref Petersenn et al. 2010
[4] = system: human corticotroph or somatotroph tumor cell lines; details: in vitro; ref Batista, et al. 2006; Danila, et al. 2001
[5] = system: advanced carcinoid tumors; details: vs. 6 months with placebo; ref Rinke, et al. 2009

CO[C@H]1C[C@@H]2CC[C@@H](C)[C@@](O)(O2)C(=O)C(=O)N2CCCC[C@H]2C(=O)O[C@H]([C@H](C)C[C@@H]2CC[C@@H](OCCO)[C@H](OC)C2)CC(=O)[C@H](C)/C=C(\C)[C@@H](O)[C@@H](OC)C(=O)[C@H](C)C[C@H](C)/C=C/C=C/C=C/1C [everolimus]
rate of tumor regression ([1]; everolimus alone, randomized trial): 64% | hyperglycemia, patients in the everolimus treatment arm ([1]; single agent, any grade): 13% | hyperglycemia categorized as grade 3 or 4 ([1]; single agent): 5%

NCCCC[C@@H]1NC(=O)[C@@H](Cc2c[nH]c3ccccc23)NC(=O)[C@H](c2ccccc2)NC(=O)[C@@H]2C[C@@H](OC(=O)NCCN)CN2C(=O)[C@H](Cc2ccccc2)NC(=O)[C@H](Cc2ccc(OCc3ccccc3)cc2)NC1=O [pasireotide] (cyclo([Hyp]([CO-Ethylenediamine])[Phg][dW]KY(Bn)F))
binding affinity (sst1; ref Schmid 2008): high binding affinity | binding affinity compared with octreotide (sst1; ref Schmid and Schoeffter 2004): greater binding affinity | hyperglycemia, patients affected [2]: 27% | effect on cell proliferation [3]: inhibition of cell proliferation | effect on QTc (QTc interval): possible QTc prolongation effect | hyperglycemia, patients affected (patients with acromegaly): 6.7% | binding affinity (sst2; ref Schmid 2008): high binding affinity | binding affinity compared with octreotide (sst2; ref Schmid and Schoeffter 2004): comparable affinity | effect on cell proliferation [4]: suppress cell proliferation | binding affinity (sst5; ref Schmid 2008): high binding affinity | binding affinity compared with octreotide (sst5; ref Schmid and Schoeffter 2004): greater binding affinity | binding affinity (sst3; ref Schmid 2008): high binding affinity | binding affinity compared with octreotide (sst3; ref Schmid and Schoeffter 2004): greater binding affinity

octreotide
median time to tumor progression [5]: 14.3 months
